Results taken from ChEMBL document CHEMBL4364276, “Discovery of 4-phenyl-2H-benzo[b][1,4]oxazin-3(4H)-one derivatives as potent and orally active PI3K/mTOR dual inhibitors” (Eur J Med Chem, 2019).
pIC50: −log10 of the molar value.

Legend:
[1] = molecular target: Ephrin type-A receptor 7 (Homo sapiens) (UniProt Q15375); assay: Inhibition of human EPHA7 at 100 nM using poly[Glu:Tyr] (4:1) as substrate by [gamma-33P]-ATP assay
[2] = molecular target: Cyclin-dependent kinase 4/cyclin D1 (Homo sapiens) (UniProt P11802+P24385); assay: Inhibition of human CDK4/cyclin-D1 at 100 nM using RB protein as substrate by [gamma-33P]-ATP assay; format: protein-complex assay
[3] = molecular target: Tyrosine-protein kinase ABL2 (Homo sapiens) (UniProt P42684); assay: Inhibition of human ABL2 at 100 nM using EAIYAAPFAKKK as substrate by [gamma-33P]-ATP assay
[4] = molecular target: Eukaryotic translation initiation factor 2-alpha kinase 3 (Homo sapiens) (UniProt Q9NZJ5); assay: Inhibition of human EIF2AK3 at 100 nM using MBP as substrate by [gamma-33P]-ATP assay
[5] = molecular target: Dual specificity protein kinase CLK2 (Homo sapiens) (UniProt P49760); assay: Inhibition of human CLK2 at 100 nM using MBP as substrate by [gamma-33P]-ATP assay
[6] = molecular target: SRSF protein kinase 2 (Homo sapiens) (UniProt P78362); assay: Inhibition of human SRPK2 at 100 nM using GRSRSRSRSR as substrate by [gamma-33P]-ATP assay
[7] = molecular target: Mitogen-activated protein kinase kinase kinase kinase 2 (Homo sapiens) (UniProt Q12851); assay: Inhibition of human GCK at 100 nM using MBP as substrate by [gamma-33P]-ATP assay
[8] = molecular target: Serine/threonine-protein kinase Nek8 (Homo sapiens) (UniProt Q86SG6); assay: Inhibition of human NEK8 at 100 nM using casein as substrate by [gamma-33P]-ATP assay
[9] = molecular target: Hepatocyte growth factor receptor (Homo sapiens) (UniProt P08581); assay: Inhibition of human c-MET at 100 nM using KKKSPGEYVNIEFG as substrate by [gamma-33P]-ATP assay
[10] = molecular target: Serine/threonine-protein kinase 32C (Homo sapiens) (UniProt Q86UX6); assay: Inhibition of human STK32C at 100 nM using MBP as substrate by [gamma-33P]-ATP assay
[11] = molecular target: RAC-beta serine/threonine-protein kinase (Homo sapiens) (UniProt P31751); assay: Inhibition of human AKT2 at 100 nM using KGSGSGRPRTSSFAEG as substrate by [gamma-33P]-ATP assay
[12] = molecular target: Serine/threonine-protein kinase/endoribonuclease IRE1 (Homo sapiens) (UniProt O75460); assay: Inhibition of human ERN1 at 100 nM using MBP as substrate by [gamma-33P]-ATP assay
[13] = molecular target: Tyrosine-protein kinase TXK (Homo sapiens) (UniProt P42681); assay: Inhibition of human TXK at 100 nM using EAIYAAPFAKKK as substrate by [gamma-33P]-ATP assay
[14] = molecular target: NUAK family SNF1-like kinase 2 (Homo sapiens) (UniProt Q9H093); assay: Inhibition of human SNARK at 100 nM using KKKVSRSGLYRSPSMPENLNRPR as substrate by [gamma-33P]-ATP assay
[15] = molecular target: Serine/threonine-protein kinase tousled-like 1 (Homo sapiens) (UniProt Q9UKI8); assay: Inhibition of human TLK1 at 100 nM using Histone H3 as substrate by [gamma-33P]-ATP assay
[16] = molecular target: Protein kinase C theta type (Homo sapiens) (UniProt Q04759); assay: Inhibition of human PKCtheta at 100 nM using Histone H1 as substrate by [gamma-33P]-ATP assay
[17] = molecular target: MAP/microtubule affinity-regulating kinase 4 (Homo sapiens) (UniProt Q96L34); assay: Inhibition of human MARK4 at 100 nM using KKKVSRSGLYRSPSMPENLNRPR as substrate by [gamma-33P]-ATP assay
[18] = molecular target: Serine/threonine-protein kinase ICK (Homo sapiens) (UniProt Q9UPZ9); assay: Inhibition of human LCK2 at 100 nM using MBP as substrate by [gamma-33P]-ATP assay
[19] = molecular target: Cyclin-Y/Cyclin-dependent kinase 16 (Homo sapiens) (UniProt Q00536+Q8ND76); assay: Inhibition of human CDK16/cyclin-Y at 100 nM using RB protein as substrate by [gamma-33P]-ATP assay; format: protein-complex assay
[20] = molecular target: Casein kinase I isoform alpha (Homo sapiens) (UniProt P48729); assay: Inhibition of human CK1a1 at 100 nM using KRRRAL[pS]VASLPGL as substrate by [gamma-33P]-ATP assay
[21] = molecular target: CDK9/Cyclin-T2 (Homo sapiens) (UniProt P50750+O60583); assay: Inhibition of human CDK9/cyclin-T2 at 100 nM using KTFCGTPEYLAPEVRREPRILSEEEQEMFRDFDYIADWC as substrate by [gamma-33P]-ATP assay; format: protein-complex assay
[22] = molecular target: Serine/threonine-protein kinase Nek7 (Homo sapiens) (UniProt Q8TDX7); assay: Inhibition of human NEK7 at 100 nM using casein as substrate by [gamma-33P]-ATP assay
[23] = molecular target: Macrophage-stimulating protein receptor (Homo sapiens) (UniProt Q04912); assay: Inhibition of human RON at 100 nM using KKSRGDYMTMQIG as substrate by [gamma-33P]-ATP assay
[24] = molecular target: CDK7/Cyclin H/MNAT1 (Homo sapiens) (UniProt P51946+P50613+P51948); assay: Inhibition of human CDK7/cyclin-H/MNAT1 at 100 nM using MBP as substrate by [gamma-33P]-ATP assay; format: protein-complex assay
[25] = molecular target: Receptor-interacting serine/threonine-protein kinase 2 (Homo sapiens) (UniProt O43353); assay: Inhibition of human RIPK2 at 100 nM using MBP as substrate by [gamma-33P]-ATP assay
[26] = molecular target: Receptor-interacting serine/threonine-protein kinase 3 (Homo sapiens) (UniProt Q9Y572); assay: Inhibition of human RIPK3 at 100 nM using MBP as substrate by [gamma-33P]-ATP assay
[27] = Cmax in Sprague-Dawley rat at 10 mg/kg, po measured upto 24 hrs by LC-MS/MS analysis; format: ADME, organism-based; parameters: dose 10 mg/kg, route oral; conditions: in vivo
[28] = molecular target: Phosphatidylinositol 4,5-bisphosphate 3-kinase catalytic subunit gamma isoform (Homo sapiens, UniProt P48736); assay: Inhibition of recombinant human full length N-terminal DYKDDDDK-tagged PI3Kgamma (1 to 1102 residues) expressed in baculovirus expression system using PIP2 as substrate incubated for 2 hrs by ADP-Glo assay
[29] = molecular target: Platelet-derived growth factor receptor beta (Homo sapiens) (UniProt P09619); assay: Inhibition of human PDGFRbeta at 100 nM using poly[Glu:Tyr] (4:1) as substrate by [gamma-33P]-ATP assay
[30] = molecular target: CDK4/Cyclin D3 (Homo sapiens) (UniProt P11802+P30281); assay: Inhibition of human CDK4/cyclin-D3 at 100 nM using RB-CTF as substrate by [gamma-33P]-ATP assay; format: protein-complex assay

Serine/threonine-protein kinase Nek8 (Homo sapiens), sequence (Q86SG6 whole entry): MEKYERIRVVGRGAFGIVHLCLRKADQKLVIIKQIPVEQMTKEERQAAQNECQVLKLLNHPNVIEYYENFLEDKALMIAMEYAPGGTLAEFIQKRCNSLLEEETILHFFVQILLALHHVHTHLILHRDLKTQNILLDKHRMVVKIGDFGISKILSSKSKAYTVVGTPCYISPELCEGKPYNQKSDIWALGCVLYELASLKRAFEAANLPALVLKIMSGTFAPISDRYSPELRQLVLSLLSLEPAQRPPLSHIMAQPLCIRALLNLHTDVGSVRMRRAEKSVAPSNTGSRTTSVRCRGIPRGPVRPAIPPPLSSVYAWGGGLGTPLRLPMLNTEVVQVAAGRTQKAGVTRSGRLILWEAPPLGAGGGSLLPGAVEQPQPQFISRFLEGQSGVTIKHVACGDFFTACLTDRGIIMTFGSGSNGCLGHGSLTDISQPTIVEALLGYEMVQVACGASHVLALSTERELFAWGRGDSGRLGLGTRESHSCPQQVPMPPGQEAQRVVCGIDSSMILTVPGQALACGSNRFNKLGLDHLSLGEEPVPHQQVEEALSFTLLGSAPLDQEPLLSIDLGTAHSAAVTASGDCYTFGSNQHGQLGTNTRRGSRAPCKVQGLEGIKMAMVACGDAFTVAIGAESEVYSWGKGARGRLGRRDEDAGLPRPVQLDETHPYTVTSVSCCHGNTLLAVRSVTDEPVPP
Serine/threonine-protein kinase/endoribonuclease IRE1 (Homo sapiens), sequence (O75460 19-977 limits assumed): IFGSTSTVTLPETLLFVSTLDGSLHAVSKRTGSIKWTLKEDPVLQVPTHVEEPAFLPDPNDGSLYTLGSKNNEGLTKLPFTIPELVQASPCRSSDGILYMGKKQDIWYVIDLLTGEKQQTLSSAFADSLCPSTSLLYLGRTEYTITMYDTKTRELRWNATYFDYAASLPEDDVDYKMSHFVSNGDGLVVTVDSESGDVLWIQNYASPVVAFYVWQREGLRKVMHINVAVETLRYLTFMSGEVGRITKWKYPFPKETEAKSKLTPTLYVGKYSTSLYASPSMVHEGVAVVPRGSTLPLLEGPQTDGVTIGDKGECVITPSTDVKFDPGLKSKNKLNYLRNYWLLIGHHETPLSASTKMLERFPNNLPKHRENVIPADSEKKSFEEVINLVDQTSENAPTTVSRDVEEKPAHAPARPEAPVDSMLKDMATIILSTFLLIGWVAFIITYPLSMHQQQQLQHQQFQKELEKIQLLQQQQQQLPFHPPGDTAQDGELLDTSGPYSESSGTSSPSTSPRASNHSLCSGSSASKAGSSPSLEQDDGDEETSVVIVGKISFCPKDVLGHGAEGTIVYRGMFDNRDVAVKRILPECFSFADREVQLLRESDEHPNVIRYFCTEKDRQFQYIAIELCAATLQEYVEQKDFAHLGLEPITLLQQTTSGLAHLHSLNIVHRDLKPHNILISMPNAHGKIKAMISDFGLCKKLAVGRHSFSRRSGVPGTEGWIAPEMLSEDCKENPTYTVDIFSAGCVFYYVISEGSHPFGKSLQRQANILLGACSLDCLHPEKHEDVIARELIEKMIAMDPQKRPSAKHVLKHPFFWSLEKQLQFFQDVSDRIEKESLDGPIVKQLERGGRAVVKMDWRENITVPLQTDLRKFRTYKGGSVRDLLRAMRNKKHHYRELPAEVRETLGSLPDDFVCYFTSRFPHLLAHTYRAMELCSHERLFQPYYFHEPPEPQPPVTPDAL
Serine/threonine-protein kinase ICK (Homo sapiens), sequence (Q9UPZ9 whole entry): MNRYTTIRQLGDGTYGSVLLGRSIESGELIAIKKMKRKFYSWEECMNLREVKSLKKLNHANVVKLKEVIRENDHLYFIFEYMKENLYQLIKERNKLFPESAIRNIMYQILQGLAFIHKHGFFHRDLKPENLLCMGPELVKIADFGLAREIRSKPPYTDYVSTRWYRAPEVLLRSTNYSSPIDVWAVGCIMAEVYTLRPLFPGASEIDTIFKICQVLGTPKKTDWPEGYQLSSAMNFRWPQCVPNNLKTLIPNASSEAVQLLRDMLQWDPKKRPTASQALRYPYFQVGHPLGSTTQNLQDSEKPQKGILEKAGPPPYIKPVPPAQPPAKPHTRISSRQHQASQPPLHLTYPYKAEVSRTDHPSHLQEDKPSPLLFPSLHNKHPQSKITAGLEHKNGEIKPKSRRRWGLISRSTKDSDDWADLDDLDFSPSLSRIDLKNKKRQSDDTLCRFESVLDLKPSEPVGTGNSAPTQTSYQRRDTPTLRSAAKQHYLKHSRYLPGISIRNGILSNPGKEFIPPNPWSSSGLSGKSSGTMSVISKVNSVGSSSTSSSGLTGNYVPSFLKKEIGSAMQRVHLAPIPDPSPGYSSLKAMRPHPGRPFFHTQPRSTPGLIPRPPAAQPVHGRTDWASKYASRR
Phosphatidylinositol 4,5-bisphosphate 3-kinase catalytic subunit gamma isoform, sequence (P48736 whole entry, the tested form may be a part, canonical isoform): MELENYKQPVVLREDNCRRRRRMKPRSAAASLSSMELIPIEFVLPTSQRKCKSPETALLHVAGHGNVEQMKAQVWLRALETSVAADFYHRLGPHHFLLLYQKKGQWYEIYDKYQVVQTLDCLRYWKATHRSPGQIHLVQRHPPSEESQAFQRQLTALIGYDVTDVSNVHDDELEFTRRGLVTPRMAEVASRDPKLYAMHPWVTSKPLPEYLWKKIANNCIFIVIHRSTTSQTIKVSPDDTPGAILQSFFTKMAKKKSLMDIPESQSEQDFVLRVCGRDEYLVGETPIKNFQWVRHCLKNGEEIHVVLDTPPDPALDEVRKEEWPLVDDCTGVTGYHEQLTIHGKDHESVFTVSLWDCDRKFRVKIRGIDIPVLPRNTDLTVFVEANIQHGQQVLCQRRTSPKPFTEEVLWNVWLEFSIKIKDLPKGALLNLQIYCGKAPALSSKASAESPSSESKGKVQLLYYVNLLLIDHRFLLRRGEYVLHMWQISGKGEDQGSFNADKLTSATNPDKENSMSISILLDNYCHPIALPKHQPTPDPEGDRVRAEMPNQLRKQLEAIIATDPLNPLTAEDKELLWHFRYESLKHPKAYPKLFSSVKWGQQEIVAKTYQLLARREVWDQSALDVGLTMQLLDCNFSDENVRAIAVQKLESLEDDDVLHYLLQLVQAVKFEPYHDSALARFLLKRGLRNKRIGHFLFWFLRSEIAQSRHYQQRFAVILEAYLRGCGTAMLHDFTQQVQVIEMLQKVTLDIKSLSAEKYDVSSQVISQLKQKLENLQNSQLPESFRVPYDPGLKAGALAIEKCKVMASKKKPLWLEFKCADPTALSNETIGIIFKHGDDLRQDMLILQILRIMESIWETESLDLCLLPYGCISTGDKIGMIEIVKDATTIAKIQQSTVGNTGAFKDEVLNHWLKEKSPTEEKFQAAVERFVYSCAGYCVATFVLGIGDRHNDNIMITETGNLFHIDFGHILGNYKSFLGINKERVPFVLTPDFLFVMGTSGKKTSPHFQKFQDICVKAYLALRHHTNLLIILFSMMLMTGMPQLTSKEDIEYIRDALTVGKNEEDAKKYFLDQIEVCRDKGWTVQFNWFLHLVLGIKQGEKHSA
Serine/threonine-protein kinase Nek7 (Homo sapiens), sequence (Q8TDX7 whole entry, looked up): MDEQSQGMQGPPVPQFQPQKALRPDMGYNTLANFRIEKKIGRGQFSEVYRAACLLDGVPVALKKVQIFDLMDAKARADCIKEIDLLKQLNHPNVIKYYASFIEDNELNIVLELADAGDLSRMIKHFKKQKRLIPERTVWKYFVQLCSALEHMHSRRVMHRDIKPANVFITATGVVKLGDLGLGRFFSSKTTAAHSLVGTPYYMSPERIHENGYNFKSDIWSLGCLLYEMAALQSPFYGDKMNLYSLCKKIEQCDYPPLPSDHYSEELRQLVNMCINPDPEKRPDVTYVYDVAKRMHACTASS
Receptor-interacting serine/threonine-protein kinase 3 (Homo sapiens), sequence (Q9Y572 whole entry, looked up): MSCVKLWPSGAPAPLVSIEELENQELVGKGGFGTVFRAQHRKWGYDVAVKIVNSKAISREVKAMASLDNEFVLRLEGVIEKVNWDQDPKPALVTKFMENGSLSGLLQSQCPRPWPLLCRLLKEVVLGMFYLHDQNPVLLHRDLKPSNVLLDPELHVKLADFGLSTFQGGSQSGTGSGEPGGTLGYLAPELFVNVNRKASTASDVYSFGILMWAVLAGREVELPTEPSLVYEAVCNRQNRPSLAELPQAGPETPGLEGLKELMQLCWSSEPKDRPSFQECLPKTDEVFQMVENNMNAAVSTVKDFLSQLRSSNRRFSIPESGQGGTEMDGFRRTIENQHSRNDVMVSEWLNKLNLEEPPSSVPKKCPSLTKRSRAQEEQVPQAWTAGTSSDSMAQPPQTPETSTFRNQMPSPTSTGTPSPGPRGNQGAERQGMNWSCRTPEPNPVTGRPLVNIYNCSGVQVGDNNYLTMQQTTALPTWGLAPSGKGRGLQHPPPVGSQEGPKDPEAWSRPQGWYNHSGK
Serine/threonine-protein kinase 32C (Homo sapiens), sequence (Q86UX6 whole entry): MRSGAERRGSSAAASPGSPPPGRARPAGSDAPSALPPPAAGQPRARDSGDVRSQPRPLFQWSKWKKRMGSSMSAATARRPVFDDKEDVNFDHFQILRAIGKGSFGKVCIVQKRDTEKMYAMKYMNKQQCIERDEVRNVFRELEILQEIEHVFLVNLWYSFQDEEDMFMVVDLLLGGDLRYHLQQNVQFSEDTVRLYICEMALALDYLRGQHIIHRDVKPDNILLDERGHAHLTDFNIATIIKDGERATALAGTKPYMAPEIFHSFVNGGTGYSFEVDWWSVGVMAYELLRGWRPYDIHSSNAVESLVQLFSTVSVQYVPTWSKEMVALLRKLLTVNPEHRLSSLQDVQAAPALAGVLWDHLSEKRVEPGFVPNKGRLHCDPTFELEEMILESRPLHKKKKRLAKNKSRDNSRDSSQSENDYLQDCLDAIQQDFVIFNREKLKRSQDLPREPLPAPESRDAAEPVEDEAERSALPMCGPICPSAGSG
Casein kinase I isoform alpha (Homo sapiens), sequence (P48729 2-337 limits assumed): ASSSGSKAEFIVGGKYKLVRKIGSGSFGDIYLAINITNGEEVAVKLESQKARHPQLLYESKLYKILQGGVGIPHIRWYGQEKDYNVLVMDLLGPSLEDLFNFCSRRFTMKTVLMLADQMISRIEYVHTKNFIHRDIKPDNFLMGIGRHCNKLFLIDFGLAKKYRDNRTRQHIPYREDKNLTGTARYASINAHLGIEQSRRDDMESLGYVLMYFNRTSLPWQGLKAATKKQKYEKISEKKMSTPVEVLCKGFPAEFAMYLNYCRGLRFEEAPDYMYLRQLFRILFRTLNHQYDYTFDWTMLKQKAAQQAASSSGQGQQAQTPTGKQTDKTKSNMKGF

For COc1ccc(N2C(=O)COc3ccc(-c4cnc(OC)c(NS(=O)(=O)c5ccc(F)cc5)c4)cc32)cc1, the inhibition [1] was 11.5%, the inhibition [2] was 0.16% and the inhibition [3] was -2.65%. It also gave an inhibition [4] of 23.3%, an inhibition [5] of 10.2% and an inhibition [6] of -0.24%. The inhibition [7] was 1.33%, the inhibition [8] was 14.4% and the inhibition [9] was -7.9%. For the same compound, the inhibition [10] was -6.39%, the inhibition [11] was 28.1% and the inhibition [12] was -2.68%. It also gave an inhibition [13] of 9.62%, an inhibition [14] of 4.8% and an inhibition [15] of 2.5%. For the same compound, the inhibition [16] was 0.73%, the inhibition [17] was 1.56% and the inhibition [18] was 7.92%. The inhibition [19] was 0.27%, the inhibition [20] was 16.6% and the inhibition [21] was 31.9%. For the same compound, the inhibition [22] was 4.12%, the inhibition [23] was -0.5% and the inhibition [24] was -3.2%. The inhibition [25] was 14.2%, the inhibition [26] was -2.23% and the Cmax [27] was 0.887 µg/mL. For the same compound, the pIC50 [28] was 7.66, the inhibition [29] was 0.28% and the inhibition [30] was -5.7%.
